One series deals with E. coli ATCC25922. The procedure: (§1) To measure the antimicrobial activity of the peptoids synthesized in Example 1, an E. coli ATCC25922 strain as gram-negative bacteria and an S. aureus KCTC25923 strain as gram-positive bacteris, were treated with the peptoids, followed by measuring the minimum inhibitory concentration (MIC). Peptoids 1 and 2 are antimicrobial peptoids known in the art, and used as controls for comparing antimicrobial activity with a novel peptoid.
(§2) Specifically, the S. aureus KCTC25923 or E. coli ATCC25922 strain was inoculated into a Mueller Hinton Broth (MHB2) liquid medium in which cations had been adjusted in the medium, cultured at 37° C. for 18 hours, subcultured, and then incubated for 4 hours. Afterward, for each bacterial strain, an optical density (OD, 0.001) was adjusted so that the bacterial count became 2×10^5 to 5×10^5 colony-forming units (CFU) per mL, which was then diluted with a MHB2 liquid medium containing 0.02% bovine serum albumin and 0.001% acetic acid, and dispensed at 100 μL into a 96-well microplate. Using sterile water, a peptoid stock 40 times stronger than a concentration to be tested was subjected to two-fold serial dilution and assessed at six different concentrations, and the maximum value of the peptoid concentrations was 25 μM. Subsequently, the plate was incubated at 37° C. for 24 hours. Afterward, optical density (OD) values at 600 nm were measured using a microplate reader (Bio-Rad).
(§3) Each MIC value was determined as the average value of a value obtained through three independent experiments.
(§4) Referring to Table 22, to measure the antimicrobial activity of the peptoids synthesized in Example 3, an MIC was measured by treating gram-negative bacteria, that is, the E. coli ATCC25922 strain, and gram-positive bacteria, that is, the S. aureus ATCC25923 strain, with the peptoids. Here, Peptoid 1 is a conventionally known antimicrobial peptoid, and Omiganan is a derivative of indolicidin, which is an antimicrobial peptide, under clinical development, and was used as a control for comparing antimicrobial activity with the novel peptoid.

For a further series, the system named is S. aureus ATCC 25923. The protocol: as §1, §2, §3, §4
A further series relates to red blood cells. The series is described as follows: Hemolysis assay. Type of series: cell-based, Sprague-Dawley mouse. In short, it runs like this: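 Peptoid is mixed with 10% (v/v) PBS-washed erythrocytes (male Sprague-Dawley […], 13 weeks) and held 1 h at 37 °C. Hemolysis is calculated from 540 nm absorbance of the supernatant, with PBS as 0% and Triton X-100 as 100%.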

Where [1] appears, read: Tables 11-13, 24 hours at 37° C., maximum concentration 25 μM.

In brackets after ≈: the same amount, converted by molar mass. Read-outs that look alike come from different tables or passages of the source. *1 amine or outer side, *2 acyl side, *3 side chain or, on linkers, in order; H or OH if unused. Where a SMILES comes first, the peptide text is derived from it. [ ]: non-standard residue; d: D form. Gly(N(CH2)2(3-indolyl)) = O=C(O)CNCCc1c[nH]c2ccccc12; Gly(N-CH2CH2-imidazol-4-yl) = O=C(O)CNCCc1c[nH]cn1; Nspe = C[C@H](NCC(=O)O)c1ccccc1; X1 = O=C(CN(CCCCO)[*:1])[*:2]; Nlys = NCCCCNCC(=O)O A value given as a limit tells only on which side of the number the result lay.

These results are taken from patent publication US20240226228A1, “ANTIMICROBIAL PEPTOID HAVING IMPROVED SELECTIVITY AND ANTIMICROBIAL COMPOSITION COMPRISING SAME” (priority 2021, published 2024).

As to `C[C@@H](c1ccccc1)N(CC(N)=O)C(=O)CN(CCCCN)C(=O)CN(CCCCN)C(=O)CN(C(=O)CN(C(=O)CN(CCCCN)C(=O)CN(C(=O)CN(CCc1c[nH]cn1)C(=O)CN(CCCCN)C(=O)CN(CCc1c[nH]c2ccccc12)C(=O)CN(CCc1c[nH]c2ccccc12)C(=O)CNCCCCN)[C@@H](C)c1ccccc1)[C@@H](C)c1ccccc1)[C@@H](C)c1ccccc1` [Peptoid 67] (H-[Nlys][Gly(N(CH2)2(3-indolyl))][Gly(N(CH2)2(3-indolyl))][Nlys][Gly(N-CH2CH2-imidazol-4-yl)][Nspe][Nlys][Nspe][Nspe][Nlys][Nlys][Nspe]-NH2), the “MIC E. coli ATCC25922” value against E. coli ATCC25922 (ATCC25922) was over 25 µM. Besides, the “MIC S. aureus ATCC 25923” value against S. aureus ATCC 25923 (ATCC 25923) amounted to 25 µM (≈ 46.4 µg/mL).
For orientation: HC50 means the concentration giving 50% haemolysis. Regarding `C[C@@H](c1ccccc1)N(CC(=O)N(CCc1c[nH]c2ccccc12)CC(=O)N(CCCCN)CC(=O)N(CC(=O)N(CCc1c[nH]c2ccccc12)CC(=O)N(CCCCN)CC(=O)N(CC(=O)N(CCc1c[nH]c2ccccc12)CC(=O)N(CCCCN)CC(=O)N(CC(=O)N(CCc1c[nH]c2ccccc12)CC(N)=O)[C@@H](C)c1ccccc1)[C@@H](C)c1ccccc1)[C@@H](C)c1ccccc1)C(=O)CNCCCCN` [Peptoid 22] (H-[Nlys][Nspe][Gly(N(CH2)2(3-indolyl))][Nlys][Nspe][Gly(N(CH2)2(3-indolyl))][Nlys][Nspe][Gly(N(CH2)2(3-indolyl))][Nlys][Nspe][Gly(N(CH2)2(3-indolyl))]-NH2), in the series with E. coli ATCC25922 (setting [1]), the “MIC E. coli ATCC25922” value was found to be 12.5 µM (≈ 24.7 µg/mL). The “MIC S. aureus ATCC 25923” value with S. aureus ATCC 25923 (setting [1]) amounted to 1.6 µM (≈ 3.16 µg/mL). Moreover, in the series on red blood cells, the HC10 turned out to be 6.9 µM, the concentration for 50% haemolysis (HC50) stood at 19.4 µM and the “Hmax (100 μM)” value was determined as 108.6 ± 1.1%.
For `NC(=O)CN(CCc1c[nH]c2ccccc12)C(=O)CN(CCc1c[nH]c2ccccc12)C(=O)CN(CCCCO)C(=O)CN(CCc1c[nH]c2ccccc12)C(=O)CN(CCc1c[nH]c2ccccc12)C(=O)CN(CCCCO)C(=O)CN(CCc1c[nH]c2ccccc12)C(=O)CN(CCc1c[nH]c2ccccc12)C(=O)CN(CCCCO)C(=O)CN(CCc1c[nH]c2ccccc12)C(=O)CN(CCc1c[nH]c2ccccc12)C(=O)CNCCCCO` [Peptoid 65] (H-[X1][Gly(N(CH2)2(3-indolyl))][Gly(N(CH2)2(3-indolyl))][X1][Gly(N(CH2)2(3-indolyl))][Gly(N(CH2)2(3-indolyl))][X1][Gly(N(CH2)2(3-indolyl))][Gly(N(CH2)2(3-indolyl))][X1][Gly(N(CH2)2(3-indolyl))][Gly(N(CH2)2(3-indolyl))]-NH2), the “MIC E. coli ATCC25922” value in the series with E. coli ATCC25922 (setting [1]) is over 25 µM. Besides, the “MIC S. aureus ATCC 25923” value in the series on S. aureus ATCC 25923 (setting [1]) was over 25 µM.
Turning to `C[C@@H](c1ccccc1)N(CC(N)=O)C(=O)CN(C(=O)CN(CCCCN)C(=O)CN(C(=O)CN(C(=O)CN(CCCCN)C(=O)CN(CCc1c[nH]c2ccccc12)C(=O)CN(C(=O)CN(CCCCN)C(=O)CN(C(=O)CN(CCCCN)C(=O)CNCCCCN)[C@@H](C)c1ccccc1)[C@@H](C)c1ccccc1)[C@@H](C)c1ccccc1)[C@@H](C)c1ccccc1)[C@@H](C)c1ccccc1` [Peptoid 27], in the series with E. coli ATCC25922 (setting [1]), the “MIC E. coli ATCC25922” value is 25 µM (≈ 45.6 µg/mL). Further, the “MIC S. aureus ATCC 25923” value against S. aureus ATCC 25923 (setting [1]) is 3.1 µM (≈ 5.66 µg/mL). For the same molecule, in the series with red blood cells, the HC10 is recorded as >100/>100 μM, the HC50 is given as >100/>100 μM and the “Hmax (100 μM)” value worked out at 5.9 ± 0.2%.
Take `C[C@@H](c1ccccc1)N(CC(=O)N(CCCCN)CC(=O)N(CC(=O)N(CC(=O)N(CCCCN)CC(=O)N(CC(=O)N(CC(=O)N(CCCCN)CC(=O)N(CCCCN)CC(N)=O)[C@@H](C)c1ccccc1)[C@@H](C)c1ccccc1)[C@@H](C)c1ccccc1)[C@@H](C)c1ccccc1)C(=O)CN(C(=O)CNCCCCN)[C@@H](C)c1ccccc1` [Peptoid 52] (H-[Nlys][Nspe][Nspe][Nlys][Nspe][Nspe][Nlys][Nspe][Nspe][Nlys][Nlys]-NH2): the “MIC S. aureus ATCC 25923” value against S. aureus ATCC 25923 (setting [1]) is over 25 µM.
Take `C[C@@H](c1ccccc1)N(CC(=O)N(CCCCN)CC(=O)N(CC(=O)N(CC(=O)N(CCCCN)CC(=O)N(CCCCN)CC(=O)N(CCc1c[nH]cn1)CC(N)=O)[C@@H](C)c1ccccc1)[C@@H](C)c1ccccc1)C(=O)CN(C(=O)CN(CCCCN)C(=O)CN(CCc1c[nH]c2ccccc12)C(=O)CN(CCc1c[nH]c2ccccc12)C(=O)CNCCCCN)[C@@H](C)c1ccccc1` [Peptoid 71] (H-[Nlys][Gly(N(CH2)2(3-indolyl))][Gly(N(CH2)2(3-indolyl))][Nlys][Nspe][Nspe][Nlys][Nspe][Nspe][Nlys][Nlys][Gly(N-CH2CH2-imidazol-4-yl)]-NH2): the “MIC E. coli ATCC25922” value in the series on E. coli ATCC25922 (ATCC25922) is over 25 µM. Moreover, the “MIC S. aureus ATCC 25923” value against S. aureus ATCC 25923 (ATCC 25923) was over 25 µM.
In the case of `C[C@@H](c1ccccc1)N(CC(N)=O)C(=O)CN(CCCCN)C(=O)CN(CCCCN)C(=O)CN(CCc1c[nH]cn1)C(=O)CN(C(=O)CN(CCCCN)C(=O)CN(C(=O)CN(C(=O)CN(CCCCN)C(=O)CN(CCc1c[nH]c2ccccc12)C(=O)CN(CCc1c[nH]c2ccccc12)C(=O)CNCCCCN)[C@@H](C)c1ccccc1)[C@@H](C)c1ccccc1)[C@@H](C)c1ccccc1` [Peptoid 70] (H-[Nlys][Gly(N(CH2)2(3-indolyl))][Gly(N(CH2)2(3-indolyl))][Nlys][Nspe][Nspe][Nlys][Nspe][Gly(N-CH2CH2-imidazol-4-yl)][Nlys][Nlys][Nspe]-NH2), the “MIC E. coli ATCC25922” value in the series with E. coli ATCC25922 (ATCC25922) is over 25 µM. In the series with S. aureus ATCC 25923 (ATCC 25923), the “MIC S. aureus ATCC 25923” value was over 25 µM.
Regarding `C[C@@H](c1ccccc1)N(CC(N)=O)C(=O)CN(CCCCN)C(=O)CN(CCCCN)C(=O)CN(C(=O)CN(C(=O)CN(CCCCN)C(=O)CN(CCc1c[nH]cn1)C(=O)CN(C(=O)CN(CCCCN)C(=O)CN(CCc1c[nH]c2ccccc12)C(=O)CN(CCc1c[nH]c2ccccc12)C(=O)CNCCCCN)[C@@H](C)c1ccccc1)[C@@H](C)c1ccccc1)[C@@H](C)c1ccccc1` [Peptoid 68] (H-[Nlys][Gly(N(CH2)2(3-indolyl))][Gly(N(CH2)2(3-indolyl))][Nlys][Nspe][Gly(N-CH2CH2-imidazol-4-yl)][Nlys][Nspe][Nspe][Nlys][Nlys][Nspe]-NH2), the “MIC E. coli ATCC25922” value in the series with E. coli ATCC25922 (ATCC25922) was over 25 µM. The “MIC S. aureus ATCC 25923” value in the series with S. aureus ATCC 25923 (ATCC 25923) is 25 µM (≈ 46.4 µg/mL).
`C[C@@H](c1ccccc1)N(CC(=O)N(CCCCO)CC(=O)N(CCc1c[nH]c2ccccc12)CC(=O)N(CCc1c[nH]c2ccccc12)CC(N)=O)C(=O)CN(CCCCO)C(=O)CN(CCCCO)C(=O)CN(C(=O)CN(C(=O)CN(CCCCO)C(=O)CN(C(=O)CN(C(=O)CNCCCCO)[C@@H](C)c1ccccc1)[C@@H](C)c1ccccc1)[C@@H](C)c1ccccc1)[C@@H](C)c1ccccc1` [Peptoid 66]: in the series on E. coli ATCC25922 (setting [1]), the “MIC E. coli ATCC25922” value was over 25 µM. Moreover, in the series on S. aureus ATCC 25923 (setting [1]), the “MIC S. aureus ATCC 25923” value was over 25 µM.
For the molecule `C[C@@H](c1ccccc1)N(CC(N)=O)C(=O)CN(CCCCN)C(=O)CN(C(=O)CN(C(=O)CN(CCCCN)C(=O)CN(C(=O)CN(C(=O)CN(CCCCN)C(=O)CN(C(=O)CN(CCCCN)C(=O)CNCCCCN)[C@@H](C)c1ccccc1)[C@@H](C)c1ccccc1)[C@@H](C)c1ccccc1)[C@@H](C)c1ccccc1)[C@@H](C)c1ccccc1` [Peptoid 49], the “MIC S. aureus ATCC 25923” value with S. aureus ATCC 25923 (setting [1]) is over 25 µM. Further, in the series with red blood cells, the HC10 was >100/>100 μM, the HC50 was >100/>100 μM and the “Hmax (100 μM)” value came out at 0.3 ± 0.3%.
Regarding `C[C@@H](c1ccccc1)N(CC(=O)N(CCCCN)CC(=O)N(CCc1c[nH]c2ccccc12)CC(=O)N(CCc1c[nH]c2ccccc12)CC(N)=O)C(=O)CN(CCc1c[nH]cn1)C(=O)CN(CCCCN)C(=O)CN(C(=O)CN(C(=O)CN(CCCCN)C(=O)CN(C(=O)CN(C(=O)CNCCCCN)[C@@H](C)c1ccccc1)[C@@H](C)c1ccccc1)[C@@H](C)c1ccccc1)[C@@H](C)c1ccccc1` [Peptoid 78, H-NLys-Nspe-Nspe-NLys-Nspe-Nspe-NLys-NHis-Nspe-NLys-NhTrp-NhTrp-NH2] (H-[Nlys][Nspe][Nspe][Nlys][Nspe][Nspe][Nlys][Gly(N-CH2CH2-imidazol-4-yl)][Nspe][Nlys][Gly(N(CH2)2(3-indolyl))][Gly(N(CH2)2(3-indolyl))]-NH2), the “antimicrobial activity (in words)” value in the series on E. coli ATCC25922 (E. coli and S. aureus, compared to Peptoid 1, parent peptoid or TFA salt as stated) is “retained antimicrobial activity”. Further, the “cytotoxicity against red blood cells / hemolysis (in words)” value in the series on red blood cells was “improved in toxicity”.
For the molecule `C[C@@H](c1ccccc1)N(CC(N)=O)C(=O)CN(CCCCN)C(=O)CN(CCCCN)C(=O)CN(C(=O)CN(CCc1c[nH]cn1)C(=O)CN(CCCCN)C(=O)CN(C(=O)CN(C(=O)CN(CCCCN)C(=O)CN(CCc1c[nH]c2ccccc12)C(=O)CN(CCc1c[nH]c2ccccc12)C(=O)CNCCCCN)[C@@H](C)c1ccccc1)[C@@H](C)c1ccccc1)[C@@H](C)c1ccccc1` [Peptoid 69] (H-[Nlys][Gly(N(CH2)2(3-indolyl))][Gly(N(CH2)2(3-indolyl))][Nlys][Nspe][Nspe][Nlys][Gly(N-CH2CH2-imidazol-4-yl)][Nspe][Nlys][Nlys][Nspe]-NH2), the “MIC E. coli ATCC25922” value with E. coli ATCC25922 (ATCC25922) came out at 25 µM (≈ 46.4 µg/mL). In the series on S. aureus ATCC 25923 (ATCC 25923), the “MIC S. aureus ATCC 25923” value is 25 µM (≈ 46.4 µg/mL).
